Read-outs that look alike come from different tables or passages of the source.
Key:
human ATGL = molecular target: T1, human ATGL (Homo sapiens, UniProt Q96AD5); test: TG hydrolase activity, Expi cell lysates expressing human ATGL + CGI-58, radiolabelled triolein; assay type: biochemical
T1 construct: made in house; host or cells: Expi cells (lysate, not purified)
T1 sequence (Q96AD5 1-504): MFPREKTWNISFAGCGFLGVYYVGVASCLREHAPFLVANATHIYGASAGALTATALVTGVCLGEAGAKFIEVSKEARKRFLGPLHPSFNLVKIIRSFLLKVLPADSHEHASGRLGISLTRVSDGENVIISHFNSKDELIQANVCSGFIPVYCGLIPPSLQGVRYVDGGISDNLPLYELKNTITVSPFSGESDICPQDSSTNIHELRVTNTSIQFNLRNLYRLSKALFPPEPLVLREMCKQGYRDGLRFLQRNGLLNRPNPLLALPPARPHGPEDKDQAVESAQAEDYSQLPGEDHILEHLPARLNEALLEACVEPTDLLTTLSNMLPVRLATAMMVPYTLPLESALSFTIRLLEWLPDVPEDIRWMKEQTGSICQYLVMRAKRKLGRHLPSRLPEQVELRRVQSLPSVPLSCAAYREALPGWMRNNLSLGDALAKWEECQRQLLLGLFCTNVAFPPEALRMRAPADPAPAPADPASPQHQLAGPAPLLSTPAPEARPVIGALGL
Procedure, shortened: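 Lysates of Expi cells expressing ATGL, supplemented with purified CGI-58 and inhibitor in DMSO, incubated 1 h at 37 °C with emulsified radiolabelled triolein (330 μM) in potassium phosphate pH 7.0 with 5% FA-free BSA. Released FA counted by liquid scintillation after phase extraction; IC50 versus DMSO control, duplicates.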

murine ATGL = molecular target: T2, murine ATGL (Mus musculus, UniProt Q8BJ56); test: TG hydrolase activity, Expi lysates expressing mouse ATGL + CGI-58, radiolabelled triolein; assay type: biochemical
T2 construct: made in house; host or cells: Expi cells (lysate)
T2 sequence (Q8BJ56 1-486): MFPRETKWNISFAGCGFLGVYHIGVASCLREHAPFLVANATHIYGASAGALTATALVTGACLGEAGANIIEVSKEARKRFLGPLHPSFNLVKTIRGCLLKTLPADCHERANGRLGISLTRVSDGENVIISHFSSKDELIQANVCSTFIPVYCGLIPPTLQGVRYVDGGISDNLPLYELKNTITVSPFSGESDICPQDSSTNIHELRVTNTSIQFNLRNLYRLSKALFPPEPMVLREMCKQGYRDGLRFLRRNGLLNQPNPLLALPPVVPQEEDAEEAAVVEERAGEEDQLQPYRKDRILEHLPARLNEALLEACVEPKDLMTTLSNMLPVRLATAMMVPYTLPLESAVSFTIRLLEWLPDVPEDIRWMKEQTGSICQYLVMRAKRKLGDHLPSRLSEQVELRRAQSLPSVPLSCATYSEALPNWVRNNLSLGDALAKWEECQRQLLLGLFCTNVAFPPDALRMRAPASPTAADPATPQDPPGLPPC
Description: Triglyceride (TG) hydrolase activity was measured as previously described (Schweiger M et al., Methods in Enzymology, 2014, 538:171-93). In brief, TG hydrolase activity was determined by adding recombinant purified CGI-58 to Expi cell lysates expressing human ATGL. For determination of cross-species reactivity Expi lysates expressing ATGL from different model organisms (e.g. mouse, rat, rhesus monkey, goat, etc.) were used. Samples were incubated with DMSO (carrier) or increasing concentrations of ATGL inhibitors dissolved in DMSO. TG substrate was prepared by emulsifying 330 μM radiolabelled triolein (40,000 c.p.m./nmol) and 45 μM phosphatidylcholine/phosphatidylinositol (3:1) in 100 mM potassium phosphate buffer (pH 7.0) by sonication and adjusting to 5% essentially FA-free BSA. TG substrate was added to the reaction mixture and incubated for 1 h at 37° C. in the water bath. The reaction was terminated by adding methanol/chloroform/heptane (10:9:7) and 0.1 M potassium carbonate with 0.1 M boric acid (pH 10.5). After centrifugation at 800 g for 15 min the radioactivity in the upper phase was determined by liquid scintillation counting and the rate of FA hydrolysis was calculated. IC50 values were determined as inhibitor concentration capable of inhibiting TG hydrolase activity by 50% as compared to DMSO control. Samples were measured as duplicates. The determination of IC50 values for human ATGL is illustrated in FIG. 1.
Lysates from Expi cells overexpressing ATGL from mouse (Mus musculus) were incubated with recombinant purified ATGL co-activator CGI-58 and ATGL inhibitors at 50 μM. Subsequently, substrate containing radiolabeled triolein was added and liberated FA were extracted and quantified by liquid scintillation. Inhibitors were dissolved in DMSO which was used as control. Samples were measured in triplicates.

[1] = Example 237, read-out: Inhibition of human ATGL − IC50
[2] = 50 μM compound, Example 237, read-out: Inhibition of murine ATGL at 50 μM − mean [%]
[3] = Example 238, read-out: Inhibition of human ATGL IC50
[4] = 50 μM, Example 238, read-out: % Inhibition of murine ATGL at 50 μM

SMILES | IC50 (human ATGL; [1]) | inhibition at 50 µM (murine ATGL; [2]) | melting point | IC50 (human ATGL; [3]) | inhibition at 50 µM (murine ATGL; [4])
CCOC(=O)c1cccc(-c2ccc(OCCOC)cc2)n1 [Example 8] | 10 µM | 9.1% | 89 to 94 °C |  | 
CCCOC(=O)c1cccc(-c2ccc(OCC)cc2)n1 [Example 31] | 12 µM | 6% | 80 to 84 °C |  | 
CCCOc1ccc(-c2cccc(C(=O)OC(C)C)n2)cc1 [Example 27] | 3 µM | 0% | 90 to 93 °C |  | 
CCOCCOc1ccc(-c2cccc(C(=O)OC(C)C)n2)cc1 [Example 16] | 3 µM | 18.1% | 46 to 47 °C |  | 
COc1cc(C(=O)OC(C)C)nc(-c2ccc(C(F)(F)F)cc2)c1 [Example 58] | 7 µM | 0% | 55 to 56 °C |  | 
CCc1ccc(-c2cccc(C(=O)OC(C)C)n2)cc1 [Example 55] | 3 µM | 1.4% | 82 to 84 °C |  | 
C#CCOC(=O)c1cccc(-c2ccc(OCC)cc2)n1 [Example 51] | 15 µM | 31.8% | 76 to 78 °C |  | 
CC(C)OC(=O)c1cccc(-c2ccc(OC(F)(F)F)cc2)n1 [Example 37] | 10 µM | 22.8% | 43 to 47 °C |  | 
CCOc1ccc(-c2cc(OC)cc(C(=O)OC)n2)cc1 [Example 26] | 12 µM | 23.1% | 94 to 103 °C |  | 
CCS(=O)(=O)c1ccc(-c2cccc(C(=O)OC(C)C)n2)cc1 [Example 18] | 10 µM | 0% | 126 to 129 °C |  | 
CCOc1ccc(-c2cccc(C(=O)OC3CC3)n2)cc1 [Example 21] | 5 µM | 0% | 114 to 115 °C |  | 
CC(C)OC(=O)c1cccc(-c2ccc(-c3nc4ccccc4n3-c3ccccc3)cc2)n1 [Example 84] | 10 µM | 0% | 172 to 176 °C |  | 
C=CCOC(=O)c1cccc(-c2ccc(OCC)cc2)n1 [Example 32] | 6 µM | 18.6% | 65 to 70 °C |  | 
CC(C)OC(=O)c1cccc(-c2ccc(CO)cc2)n1 [Example 12] | 25 µM | 0% | 129 to 131 °C |  | 
COCCOc1ccc(-c2cccc(C(=O)OC(C)C)n2)cc1 [Example 11] | 5 µM | 1.8% | 75 to 77 °C |  | 
CC(C)OC(=O)c1cccc(/C=C/c2ccccc2)n1 [Example 76] | 10 µM | 5.1% | 66 to 71 °C |  | 
CCOc1ccc(-c2cccc(C(=O)OC(C)CC)n2)cc1 (stereo not drawn) [Example 30] | 8 µM | 0% | 49 to 51 °C |  | 
COCCOCCOc1ccc(-c2cccc(C(=O)OC(C)C)n2)cc1 [Example 15] | 6 µM | 0% | 45 to 46 °C |  | 

SMILES | IC50 (human ATGL; [1]) | inhibition at 50 µM (murine ATGL; [2]) | melting point | IC50 (human ATGL; [3]) | inhibition at 50 µM (murine ATGL; [4])
CCCCOC(=O)c1cccc(-c2ccc(OCC)cc2)n1 [Example 2] | 20 µM | 5.9% | 78 to 81 °C |  | 
C#CC(C)OC(=O)c1cccc(-c2ccc(CCC)cc2)n1 (stereo not drawn) [Example 70] | 3 µM | 0% | 90 to 92 °C |  | 
CCCCc1ccc(-c2cccc(C(=O)OC(C)C)n2)cc1 [Example 94] | 2 µM | 0% | 51 to 55 °C |  | 
CCCCCCOc1ccc(-c2cc(OC)cc(C(=O)OC(C)C)n2)cc1 [Example 83] | 2.5 µM | 0.1% | 53 to 55 °C |  | 
CC(C)OC(=O)c1cccc(-c2ccc(Cl)cc2)n1 [Example 87] | 3 µM | 0% | 94 to 95 °C |  | 
CC(C)OC(=O)c1cccc(-c2ccc(OCC(F)(F)F)cc2)n1 [Example 38] | 5 µM | 5.7% | 70 to 75 °C |  | 
CCOC(=O)c1csc(-c2ccc(OCc3ccccc3)cc2)n1 [Example 187, Ethyl 2-(4-(benzyloxy)phenyl)thiazole-4-carboxylate] | 15 µM | 10.2% | 112 to 115 °C |  | 
CCCCCOc1ccc(-c2cccc(C(=O)OC(C)C)n2)cc1 [Example 85] | 3 µM | 0% | 63 to 65 °C |  | 
CCOc1ccc(-c2cccc(C(=O)OC(C)(C)C)n2)cc1 [Example 28] | 12 µM | 0% | 69 to 73 °C |  | 
CCOc1ccc(-c2cccc(C(=O)OCc3ccoc3)n2)cc1 [Example 198, Furan-3-ylmethyl 6-(4-ethoxyphenyl)picolinate] |  |  | 97 to 101 °C | 20 µM | 82%
CC(C)OC(=O)c1cccc(-c2ccc(OC3CCCCO3)cc2)n1 (stereo not drawn) [Example 36] | 8 µM | 9.6% | 105 to 107 °C |  | 
CCOC(=O)c1ccc(-c2cccc(C(=O)OC(C)C)n2)cc1 [Example 29] | 6 µM | 0% | 56 to 62 °C |  | 
COCc1ccc(-c2cccc(C(=O)OC(C)C)n2)cc1 [Example 19] | 3 µM | 3.9% | 55 to 58 °C |  | 
CCOC(=O)c1cccc(-c2ccc(C#N)cc2)n1 [Example 88] | 25 µM | 0% | 108 to 109 °C |  | 
CC(=O)Oc1ccc(-c2cccc(C(=O)OC(C)C)n2)cc1 [Example 23] | 15 µM | 16% | 71 to 75 °C |  | 
CCOC(=O)c1cc(C)cc(-c2ccc(OCC)cc2)n1 [Example 14] | 10 µM | 6.1% | 90 to 91 °C |  | 
CCOc1ccc(-c2cccc(C(=O)OCc3ccsc3)n2)cc1 [Example 197, Thiophen-3-ylmethyl 6-(4-ethoxyphenyl)picolinate] |  |  | 90 to 93 °C | 30 µM | 75%
CCCCCCOc1ccc(-c2cccc(C(=O)OC)n2)cc1 [Example 89] | 25 µM | 0% | 68 to 69 °C |  | 

— patent US20220289698A1, “INHIBITORS OF HUMAN ATGL” (Karl-Franzens-Universität Graz, priority 2019, published 2022)
